Measurements published in patent US20240400991A1, “IMMUNE CELLS WITH REDUCED ANDROGEN RECEPTOR (AR) LEVEL, AND METHODS OF THEIR USE TO ENHANCE ANTI-CANCER THERAPY” (Oregon Health & Science University, priority 2021, published 2024).

Key:
OTI T cells in the tumor = test: Adoptive T cell therapy model: OT1 CD8 T cells in MCA-OVA tumor bearing RIP-mOVA animals
[1] = test system: CD8 tumor infiltrating cells; test: Flow cytometry / intracellular cytokine staining of tumor infiltrating CD8 T cells in PPSM tumor bearing animals; type: in vivo, mouse; details: FIGS. 8I-8L
Description: (subcutaneous) injection once every 14 days.
Flow cytometry. Cells were incubated for 20 min on ice with e506 fixable viability dye and the following antibodies: […] (H57-597), CD4 (RM4-5), CD8 (53-6.7), CD44 (IM7), PD-1 (J43) and Thy1.1 (HIS51). Intracellular proteins Ki67 (SolA15), IFNγ (XMG1.2), TNFα (MP6-CT22), Nur77 (12.14) and Granzyme B (NGZB) were detected using the Fixation/Permeabilization Solution kit from BD Biosciences. All antibodies and viability dyes were purchased from eBioscience, Biolegend, or BD Biosciences. Data were collected with a Fortessa™ flow cytometer (BD Biosciences) and analyzed using FlowJo software (Tree Star). Unless noted otherwise in the figure legend, cells were gated through live/TCRβ+/CD8+ gates for analysis.
In vitro activation and intracellular cytokine staining.

In the case of CNC(=O)c1ccc(N2C(=S)N(c3ccc(C#N)c(C(F)(F)F)c3)C(=O)C2(C)C)cc1F [enzalutamide, 4-(3-(4-cyano-3-(trifluoromethyl)phenyl)-5,5-dimethyl-4-oxo-2-thioxoimidazolidin-I-yl)-2-fluoro-N-methyl benzamide], the “cytokine production in tumor specific T cells” value (OTI T cells in the tumor; FIGS. 10A-10C legend) is reported as “increased cytokine production”, the “IFNγ production of tumor-antigen specific CD8 T cells” value (OTI T cells in the tumor; female mice, FIG. 10C) is reported as “increased” and the “IFNγ production of tumor-antigen specific CD8 T cells” value (OTI T cells in the tumor; male mice, chemically castrated (degarelix), FIG. 10B) is reported as “increased”. The “polyfunctionality of tumor-associated CD8 T cells” value [1] was “insufficient to improve the polyfunctionality”.
